Data taken from patent publication US20070099877A1, “N-aryl-thienopyrimidin-4-amines and analogs as activators of caspases and inducers of apoptosis and the use thereof” (Cytovia, Inc., priority 2005, published 2007).

These molecules were tested on human breast cancer cell line T-47D (assay: Caspase cascade activation (DEVD-R110 fluorogenic substrate) in T-47D cells). Conditions: Homo sapiens, T47D, 24 h, T47D cells, 24 h; read-out: Caspase activation Potency EC50 T47D (24 h).
Format: cell-based
Protocol: (§1) Human breast cancer cell line T-47D, human lung cancer cell line H1299, human hepatocellular carcinoma cell line SNU398, human colon carcinoma cell line HCT116 were grown according to media component mixtures designated by American Type Culture Collection+10% FCS (Invitrogen Corporation), in a 5% CO2-95% humidity incubator at 37° C. T-47D and H1299 cells were maintained at a cell density between 50 and 80% confluency at a cell density of 0.1 to 0.6×10^6 cells/mL. Cells were harvested at 600×g and resuspended at 0.65×10^6 cells/mL into appropriate media+10% FCS. An aliquot of 22.5 μL of cells was added to a well of a 384-well microtiter plate containing 2.5 μL of a 10% DMSO in RPMI-1640 media solution containing 0.16 to 100 μM of N-(2,5-dimethoxyphenyl)-2-methylthieno[3,2-d]pyrimidin-4-amine or other test compound (0.016 to 10 μM final). An aliquot of 22.5 μL of cells was added to a well of a 384-well microtiter plate containing 2.5 μL of a 10% DMSO in RPMI-1640 media solution without test compound as the control sample. The samples were mixed by agitation and then incubated at 37° C. for 24 h or 48 h in a 5% CO2-95% humidity incubator. After incubation, the samples were removed from the incubator and 25 μL of a solution containing 14 μM of N-(Ac-DEVD)-N′-ethoxycarbonyl-R110 (SEQ ID NO.:1) fluorogenic substrate (Cytovia, Inc.; WO99/18856), 20% sucrose (Sigma), 20 mM DTT (Sigma), 200 mM NaCl (Sigma), 40 mM Na PIPES buffer pH 7.2 (Sigma), and 500 μg/mL lysolecithin (Calbiochem) was added. The samples were mixed by agitation and incubated at room temperature. Using a fluorescent plate reader (Model SPECTRAfluor Plus, Tecan), an initial reading (T=0) was made approximately 1-2 min after addition of the substrate solution, employing excitation at 485 nm and emission at 530 nm, to determine the background fluorescence of the control sample. After the 3 h incubation, the samples were read for fluorescence as above (T=3 h).
(§2) The Relative Fluorescence Unit values (RFU) were used to calculate the sample readings as follows: RFU(T=3h)−Control RFU(T=O)=Net RFU(T=3h)
(§3) The activity of caspase cascade activation was determined by the ratio of the net RFU value for N-(2,5-dimethoxyphenyl)-2-methylthieno[3,2-d]pyrimidin-4-amine or other test compound to that of control samples. The EC50 (nM) was determined by a sigmoidal dose-response calculation (Prism 3.0, GraphPad Software Inc.).

EC50 | SMILES
27 nM | COc1cc(Nc2nc(C)nc3ccsc23)cc(OC)c1 [Example 54, N-(3,5-Dimethoxyphenyl)-2-methylthieno[3,2-d]pyrimidin-4-amine]
355 nM | COc1cc(Nc2ncnc3ccsc23)cc(-n2cnnn2)c1 [Example 61, N-(3-Methoxy-5-(1H-tetrazol-1-yl)phenyl)thieno[3,2-d]pyrimidin-4-amine]
> 10000 nM | COc1ccc([N+](=O)[O-])c(Nc2ncnc3ccsc23)c1 [Example 35, N-(5-Methoxy-2-nitrophenyl)thieno[3,2-d]pyrimidin-4-amine]

Same assay, conditions: Homo sapiens, T47D, 48 h, T-47D cells, 48 h; read-out: Caspase activation Potency EC50 T-47D (48 h)

EC50 | SMILES
30 nM | COc1cc(Nc2nc(C)nc3ccsc23)cc(OC)c1 [Example 54, N-(3,5-Dimethoxyphenyl)-2-methylthieno[3,2-d]pyrimidin-4-amine]
287 nM | COc1cc(Nc2ncnc3ccsc23)cc(-n2cnnn2)c1 [Example 61, N-(3-Methoxy-5-(1H-tetrazol-1-yl)phenyl)thieno[3,2-d]pyrimidin-4-amine]
> 10000 nM | COc1ccc([N+](=O)[O-])c(Nc2ncnc3ccsc23)c1 [Example 35, N-(5-Methoxy-2-nitrophenyl)thieno[3,2-d]pyrimidin-4-amine]

What follows are molecules tested on human lung cancer cell line H1299 (assay: Caspase cascade activation in H1299 cells). Conditions: NCI-H1299, 24 h, read-out: Caspase activation Potency EC50 H1299 (24 h).
Format: cell-based
Protocol: as §1, §2, §3

EC50 | SMILES
> 10 µM | COc1ccc([N+](=O)[O-])c(Nc2ncnc3ccsc23)c1 [Example 35, N-(5-Methoxy-2-nitrophenyl)thieno[3,2-d]pyrimidin-4-amine]

Each molecule was assayed on human hepatocellular carcinoma cell line SNU398 (assay: Caspase cascade activation in SNU398 cells). Conditions: Homo sapiens, SNU-398, 48 h, read-out: Caspase activation Potency EC50 SNU398 (48 h).
Format: cell-based
Protocol: as §1, §2, §3

EC50 | SMILES
256 nM | COc1cc(Nc2nc(C)nc3ccsc23)cc(OC)c1 [Example 54, N-(3,5-Dimethoxyphenyl)-2-methylthieno[3,2-d]pyrimidin-4-amine]
138 nM | COc1cc(Nc2ncnc3ccsc23)cc(-n2cnnn2)c1 [Example 61, N-(3-Methoxy-5-(1H-tetrazol-1-yl)phenyl)thieno[3,2-d]pyrimidin-4-amine]
> 10000 nM | COc1ccc([N+](=O)[O-])c(Nc2ncnc3ccsc23)c1 [Example 35, N-(5-Methoxy-2-nitrophenyl)thieno[3,2-d]pyrimidin-4-amine]

These molecules were tested on human colon carcinoma cell line HCT116 (assay: Caspase cascade activation in HCT116 cells). Conditions: Homo sapiens, HCT-116, 48 h, read-out: Caspase activation Potency EC50 HCT116 (48 h).
Format: cell-based
Protocol: as §1, §2, §3

EC50 | SMILES
61 nM | COc1cc(Nc2nc(C)nc3ccsc23)cc(OC)c1 [Example 54, N-(3,5-Dimethoxyphenyl)-2-methylthieno[3,2-d]pyrimidin-4-amine]
291 nM | COc1cc(Nc2ncnc3ccsc23)cc(-n2cnnn2)c1 [Example 61, N-(3-Methoxy-5-(1H-tetrazol-1-yl)phenyl)thieno[3,2-d]pyrimidin-4-amine]
> 10000 nM | COc1ccc([N+](=O)[O-])c(Nc2ncnc3ccsc23)c1 [Example 35, N-(5-Methoxy-2-nitrophenyl)thieno[3,2-d]pyrimidin-4-amine]

The molecules below were run on human breast cancer cell line T-47D (assay: Inhibition of cell proliferation (GI50, CellTiter-Glo) in T-47D cells). Conditions: Table IV, T47D cells, read-out: GI50 in Multi-Cancer Cells T47D.
Format: cell-based
Protocol: (§4) Human breast cancer cell lines T-47D, MX-1 and MDAMB435, human colon cancer cell line HT29, and human lung cancer cell line H1299 were grown and harvested as in Example 75. An aliquot of […] of cells (4.4×10^4 cells/mL) was added to a well of a 96-well microtiter plate containing 5 μL of a 10% DMSO in RPMI-1640 media solution containing 10 nM to 100 μM of N-(2,5-dimethoxyphenyl)-2-methylthieno[3,2-d]pyrimidin-4-amine (1 nM to 10 μM final). An aliquot of 45 μL of cells was added to a well of a 96-well microtiter plate containing 5 μL of a 10% DMSO in RPMI-1640 media solution without compound as the control sample for maximal cell proliferation (Lmax). The samples were mixed by agitation and then incubated at 37° C. for 48 h in a 5% CO2-95% humidity incubator. After incubation, the samples were removed from the incubator and 25 μL of CellTiter-Glo™ reagent (Promega) was added. The samples were mixed by agitation and incubated at room temperature for 10-15 min. Plates were then read using a luminescent plate reader (Model SPECTRAfluor Plus, Tecan) to give Ltest values.
(§5) Baseline for GI50 (dose for 50% inhibition of cell proliferation) of initial cell numbers was determined by adding an aliquot of 45 μL of cells or 45 μL of media, respectively, to wells of a 96-well microtiter plate containing 5 μL of a 10% DMSO in RPMI-1640 media solution. The samples were mixed by agitation and then incubated at 37° C. for 0.5 h in a 5% CO2-95% humidity incubator. After incubation, the samples were removed from the incubator and 25 μL of CellTiter-Glo™ reagent (Promega) was added. The samples were mixed by agitation and incubated at 37° C. for 10-15 min at room temperature in a 5% CO2-95% humidity incubator. Fluorescence was read as above, (LStart) defining luminescence for initial cell number used as baseline in GI50 determinations.
(§6) GI50 (dose for 50% inhibition of cell proliferation) is the concentration where [(LTest−Lstart)/(LMax−Lstart)]=0.5.

GI50 | SMILES
40 nM | COc1cc(Nc2nc(C)nc3ccsc23)cc(OC)c1 [Example 54, N-(3,5-Dimethoxyphenyl)-2-methylthieno[3,2-d]pyrimidin-4-amine]
398 nM | COc1cc(Nc2ncnc3ccsc23)cc(-n2cnnn2)c1 [Example 61, N-(3-Methoxy-5-(1H-tetrazol-1-yl)phenyl)thieno[3,2-d]pyrimidin-4-amine]

Each molecule was assayed on human breast cancer cell line MX-1 (assay: Inhibition of cell proliferation (GI50) in MX-1 cells). Conditions: Table IV, MX1 cells, read-out: GI50 in Multi-Cancer Cells MX1.
Format: cell-based
Protocol: as §4, §5, §6

GI50 | SMILES
100 nM | COc1cc(Nc2nc(C)nc3ccsc23)cc(OC)c1 [Example 54, N-(3,5-Dimethoxyphenyl)-2-methylthieno[3,2-d]pyrimidin-4-amine]
791 nM | COc1cc(Nc2ncnc3ccsc23)cc(-n2cnnn2)c1 [Example 61, N-(3-Methoxy-5-(1H-tetrazol-1-yl)phenyl)thieno[3,2-d]pyrimidin-4-amine]

The molecules below were run on human breast cancer cell line MDAMB435 (assay: Inhibition of cell proliferation (GI50) in MDAMB435 cells). Conditions: MDA-MB-435, Table IV, read-out: GI50 in Multi-Cancer Cells MDAMB435.
Format: cell-based
Protocol: as §4, §5, §6

GI50 | SMILES
121 nM | COc1cc(Nc2nc(C)nc3ccsc23)cc(OC)c1 [Example 54, N-(3,5-Dimethoxyphenyl)-2-methylthieno[3,2-d]pyrimidin-4-amine]
61 nM | COc1cc(Nc2ncnc3ccsc23)cc(-n2cnnn2)c1 [Example 61, N-(3-Methoxy-5-(1H-tetrazol-1-yl)phenyl)thieno[3,2-d]pyrimidin-4-amine]

These molecules were tested on human hepatocellular carcinoma cell line SNU398 (assay: Inhibition of cell proliferation (GI50) in SNU398 cells). Conditions: SNU-398, Table IV, read-out: GI50 in Multi-Cancer Cells SNU398.
Format: cell-based
Protocol: as §4, §5, §6
(§7) Several compounds were tested in multi cancer cell lines, including human breast cancer cell lines T-47D, MX-1, SKBR3 and MDAMB435, human hepatocellular carcinoma cell line SNU398, human colon carcinoma cell line HCT116, human sarcoma cell line MES-SA and multi-drug resistant (MDR) human sarcoma cell line MES-SA/ADR, murine leukemia cell line P388 and multi-drug resistant (MDR) murine leukemia cell line P388ADR, and the data are summarized in Table IV.

GI50 | SMILES
1070 nM | COc1cc(Nc2nc(C)nc3ccsc23)cc(OC)c1 [Example 54, N-(3,5-Dimethoxyphenyl)-2-methylthieno[3,2-d]pyrimidin-4-amine]
299 nM | COc1cc(Nc2ncnc3ccsc23)cc(-n2cnnn2)c1 [Example 61, N-(3-Methoxy-5-(1H-tetrazol-1-yl)phenyl)thieno[3,2-d]pyrimidin-4-amine]

What follows are molecules tested on human colon carcinoma cell line HCT116 (assay: Inhibition of cell proliferation (GI50) in HCT116 cells). Conditions: HCT-116, Table IV, read-out: GI50 in Multi-Cancer Cells HCT116.
Format: cell-based
Protocol: as §4, §5, §6, §7

GI50 | SMILES
6.58 µM | COc1cc(Nc2nc(C)nc3ccsc23)cc(OC)c1 [Example 54, N-(3,5-Dimethoxyphenyl)-2-methylthieno[3,2-d]pyrimidin-4-amine]
0.4 µM | COc1cc(Nc2ncnc3ccsc23)cc(-n2cnnn2)c1 [Example 61, N-(3-Methoxy-5-(1H-tetrazol-1-yl)phenyl)thieno[3,2-d]pyrimidin-4-amine]

Each molecule was assayed on human breast cancer cell line SKBR3 (assay: Inhibition of cell proliferation (GI50) in SKBR3 cells). Conditions: SK-BR-3, Table IV, read-out: GI50 in Multi-Cancer Cells SKBR3.
Format: cell-based
Protocol: as §4, §5, §6, §7

GI50 | SMILES
600 nM | COc1cc(Nc2ncnc3ccsc23)cc(-n2cnnn2)c1 [Example 61, N-(3-Methoxy-5-(1H-tetrazol-1-yl)phenyl)thieno[3,2-d]pyrimidin-4-amine]

These molecules were tested on human sarcoma cell line MES-SA (assay: Inhibition of cell proliferation (GI50) in MES-SA cells). Conditions: Table IV, read-out: GI50 in Multi-Cancer Cells MES-SA.
Format: cell-based
Protocol: as §4, §5, §6, §7

GI50 | SMILES
788 nM | COc1cc(Nc2nc(C)nc3ccsc23)cc(OC)c1 [Example 54, N-(3,5-Dimethoxyphenyl)-2-methylthieno[3,2-d]pyrimidin-4-amine]
836 nM | COc1cc(Nc2ncnc3ccsc23)cc(-n2cnnn2)c1 [Example 61, N-(3-Methoxy-5-(1H-tetrazol-1-yl)phenyl)thieno[3,2-d]pyrimidin-4-amine]

These molecules were tested on multi-drug resistant (MDR) human sarcoma cell line MES-SA/ADR (assay: Inhibition of cell proliferation (GI50) in MES-SA/ADR cells). Conditions: Table IV, read-out: GI50 in Multi-Cancer Cells MES-SA/ADR.
Format: cell-based
Protocol: as §4, §5, §6, §7

GI50 | SMILES
2000 nM | COc1cc(Nc2nc(C)nc3ccsc23)cc(OC)c1 [Example 54, N-(3,5-Dimethoxyphenyl)-2-methylthieno[3,2-d]pyrimidin-4-amine]
767 nM | COc1cc(Nc2ncnc3ccsc23)cc(-n2cnnn2)c1 [Example 61, N-(3-Methoxy-5-(1H-tetrazol-1-yl)phenyl)thieno[3,2-d]pyrimidin-4-amine]

The molecules below were run on murine leukemia cell line P388 (assay: Inhibition of cell proliferation (GI50) in P388 cells). Conditions: Mus musculus, Table IV, read-out: GI50 in Multi-Cancer Cells P388.
Format: cell-based
Protocol: as §4, §5, §6, §7

GI50 | SMILES
1050 nM | COc1cc(Nc2nc(C)nc3ccsc23)cc(OC)c1 [Example 54, N-(3,5-Dimethoxyphenyl)-2-methylthieno[3,2-d]pyrimidin-4-amine]
280 nM | COc1cc(Nc2ncnc3ccsc23)cc(-n2cnnn2)c1 [Example 61, N-(3-Methoxy-5-(1H-tetrazol-1-yl)phenyl)thieno[3,2-d]pyrimidin-4-amine]

These molecules were tested on multi-drug resistant (MDR) murine leukemia cell line P388ADR (assay: Inhibition of cell proliferation (GI50) in P388/ADR cells). Conditions: Mus musculus, Table IV, read-out: GI50 in Multi-Cancer Cells P388/ADR.
Format: cell-based
Protocol: as §4, §5, §6, §7

GI50 | SMILES
1100 nM | COc1cc(Nc2nc(C)nc3ccsc23)cc(OC)c1 [Example 54, N-(3,5-Dimethoxyphenyl)-2-methylthieno[3,2-d]pyrimidin-4-amine]
199 nM | COc1cc(Nc2ncnc3ccsc23)cc(-n2cnnn2)c1 [Example 61, N-(3-Methoxy-5-(1H-tetrazol-1-yl)phenyl)thieno[3,2-d]pyrimidin-4-amine]
